PMC6522510 (Nature Communications, 2019)
Where two headings read alike, the source gives them in different places.

Columns and labels:
Design in all cases: species or system AML cell lines (8); Primary HTS, single concentration about 10 uM, Cell Titer Glo viability; log10 luminescence, per cent inhibition relative to cycloheximide control
Conditions in all cases: 72 h, relative to cycloheximide control, log10 luminescence, inhibitor
ML-2 = tested on: ML-2
CMS = tested on: CMS
CHRF288-11 = tested on: CHRF288-11
CMK = tested on: CMK
M07e = tested on: M07e
U937 = tested on: U937
MOLM-13 = tested on: MOLM-13
MV4-11 = tested on: MV4-11

Structure (SMILES)	ML-2 %inh (ML-2)	CMS %inh (CMS)	CHRF288-11 %inh (CHRF288-11)	CMK %inh (CMK)	M07e %inh (M07e)	U937 %inh (U937)	MOLM-13 %inh (MOLM-13)	MV4-11 %inh (MV4-11)	ML-2 %inh (ML-2; ML-2 %inh, 10 µM)	CMS %inh (CMS; CMS %inh, 10 µM)	CHRF288-11 %inh (CHRF288-11; CHRF288-11 %inh, 10 µM)	CMK %inh (CMK; CMK %inh, 10 µM)	M07e %inh (M07e; M07e %inh, 10 µM)	U937 %inh (U937; U937 %inh, 10 µM)	MOLM-13 %inh (MOLM-13; MOLM-13 %inh, 10 µM)	MV4-11 %inh (MV4-11; MV4-11 %inh, 10 µM)
CCc1c(C)nc2sc3c(N)ncnc3c2c1C [SJ000581155-1]	1.162%	6.427%	5.014%	26.14%	3.066%	2.164%	58.52%	0.965%	–	–	–	–	–	–	–	–
Nc1c(C(=O)c2cccc(-c3ccc[n+]([O-])c3)c2)cnn1-c1ccc(F)cc1F [SJ000581156-1]	2.597%	-0.9836%	0.7431%	6.727%	5.956%	3.963%	3.379%	2.306%	–	–	–	–	–	–	–	–
CC(CO)Nc1cc(-c2[nH]c3cccnc3c2-c2ccc(F)cc2)ccn1 (stereo not shown) [SJ000581157-1]	3.05%	7.57%	7.035%	13.38%	3.935%	3.658%	1.967%	5.71%	–	–	–	–	–	–	–	–
COc1cc[nH]c1/C=C1\C(=O)Nc2ccc(F)c(C#C[C@@H](O)[C@@H](N)[C@@H](C)O)c21 [SJ000581159-1]	60.99%	97.96%	61.95%	112.6%	87.08%	83.42%	95.78%	92.6%	–	–	–	–	–	–	–	–
Cn1cc(C2=C(c3ccc(N)cc3)C(=O)NC2=O)c2ccccc21 [SJ000581160-1]	2.229%	6.332%	1.792%	8.525%	7.926%	1.651%	6.461%	3.731%	–	–	–	–	–	–	–	–
Cc1ccccc1C1=C(c2cn(C)c3ccccc23)C(=O)NC1=O [SJ000581162-1]	3.854%	6.978%	8.356%	3.937%	5.581%	0.403%	0.3788%	6.408%	–	–	–	–	–	–	–	–
Cn1c(=O)c(-c2ccccc2Cl)cc2cnc(NC3CCOCC3)nc21 [SJ000581163-1]	1.667%	7.391%	6.112%	15.25%	8.813%	4.292%	7.929%	5.265%	–	–	–	–	–	–	–	–
COc1cc(F)c(F)c(F)c1C(=O)c1cnc(NC2CCN(S(C)(=O)=O)CC2)nc1N [SJ000581164-1]	21.95%	23.31%	47.57%	59.95%	35.86%	40.5%	83.36%	22.69%	–	–	–	–	–	–	–	–
Cn1cc(C2=C(c3cn(CCCCCN)c4ccccc34)C(=O)NC2=O)c2ccccc21 [SJ000581165-1]	1.663%	0.9818%	2.441%	0.6124%	4.895%	0.4783%	2.139%	1.637%	–	–	–	–	–	–	–	–
O=C1OC(=O)C(c2c[nH]c3ccccc23)=C1c1c[nH]c2ccccc12 [SJ000581166-1]	2.957%	5.505%	5.422%	0.5161%	-1.376%	1.32%	3.376%	1.035%	–	–	–	–	–	–	–	–
NC1=NC(=O)/C(=C/c2ccc3ncccc3c2)S1 [SJ000581167-1]	6.393%	1.297%	7.843%	14.91%	-0.544%	10.35%	12.5%	20.86%	–	–	–	–	–	–	–	–
COc1ccc(N2Cc3cnc(Nc4ccccc4)nc3N([C@@H]3CC[C@@H](O)C3)C2=O)cc1 [SJ000581169-1]	3.259%	-0.5577%	84.91%	31.32%	3.499%	3.756%	15.09%	9.017%	–	–	–	–	–	–	–	–
CN1CCN(CCc2cccc(C(=O)c3cnn(-c4ccc(F)cc4)c3N)c2)CC1 [SJ000581170-1]	2.973%	1.769%	-2.499%	6.346%	1.993%	7.701%	4.249%	3.349%	–	–	–	–	–	–	–	–
Cn1c(=O)c(Oc2ccccc2)cc2cnc(NC3CCOCC3)nc21 [SJ000581171-1]	2.493%	6.487%	9.708%	8.741%	1.8%	5.834%	4.705%	4.76%	–	–	–	–	–	–	–	–
Nc1c(C(=O)c2cccc(-c3ccncc3)c2)cnn1-c1ccc(F)cc1 [SJ000581172-1]	3.419%	2.678%	-2.059%	6.56%	6.562%	13.25%	5.84%	2.351%	–	–	–	–	–	–	–	–
Cc1[nH]nc2c1N=C(c1ccccc1Cl)c1cc([N+](=O)[O-])ccc1N2 [SJ000581173-1]	56.78%	91.81%	37.73%	116.1%	57.3%	91.37%	62.4%	86.62%	–	–	–	–	–	–	–	–
Nc1c(C(=O)c2ccc(C#CCN3CCOCC3)cc2)cnn1-c1ccc(F)cc1 [SJ000581175-1]	-0.5007%	1.749%	-0.8034%	5.964%	-0.05766%	8.015%	6.812%	6.7%	–	–	–	–	–	–	–	–
CNCCCn1cc(C2=C(c3cn(C)c4ccccc34)C(=O)NC2=O)c2ccccc21 [SJ000581176-1]	2.284%	6.195%	23.82%	37.79%	23.08%	9.304%	86.21%	44.21%	–	–	–	–	–	–	–	–
CNc1ncc2cc(Oc3ccc(F)cc3F)c(=O)n(C)c2n1 [SJ000581177-1]	0.6187%	-2.096%	-5.721%	4.145%	-0.008012%	2.229%	3.528%	2.766%	–	–	–	–	–	–	–	–
COc1cccc(F)c1C(=O)c1cnc(NC2CCN(S(C)(=O)=O)CC2)nc1N [SJ000581178-1]	11.75%	16.64%	12.21%	27.9%	26.23%	27.27%	39.82%	20.51%	–	–	–	–	–	–	–	–
CCCC[C@@H](C=O)NC(=O)[C@H](CC(C)C)NC(=O)OCc1ccccc1 [SJ000755074-1, CALPEPTIN]	–	–	–	–	–	–	–	–	-0.6331%	3.296%	18.64%	-0.01297%	0.9114%	2.282%	2.613%	4.895%
CCCC[C@@H](C=O)NC(=O)[C@H](CC(C)C)NC(=O)OCc1ccccc1 [SJ000755074-2, CALPEPTIN]	–	–	–	–	–	–	–	–	0.3376%	2.144%	27.98%	-0.8705%	2.133%	3.349%	5.31%	8.208%
CNC(=O)[C@H](Cc1c[nH]c2ccccc12)NC(=O)[C@@H](CC(=O)NO)CC(C)C [SJ000755078-1, GM 6001 | ILOMASTAT (GM6001, GALARDIN)]	-0.512%	-0.9664%	9.385%	-1.76%	-0.3296%	9.818%	3.013%	1.237%	–	–	–	–	–	–	–	–
